We go through one compound from patent US20100285443A1, “Diagnostic Methods for Diseases Caused by a HPV Infection Comprising Determining the Methylation Status of the HPV Genome” (OncoMethylome Sciences SA, priority 2006, published 2010).

The structures appear in SMILES notation.

In one assay the test system is HPV16 genome. The assay is described as follows: DNA methylation of the HPV16 genome (bisulfite genomic sequencing). It is filed as cell-based. The text has this: To determine the methylation pattern of all […] genes, Bisulfite Genomic Sequencing and Methylation-specific PCR (MSP) were used. Essentially, both detection methods use the C to T conversion by bisulfite when the cytosine is not methylated. The Primers used are described in Table 1 (Bisulfite genomic sequencing—SEQ ID NOs 1 to 42) and Table 2 (Methylation-specific PCR—SEQ ID NOs 43 to 46).
Thus, the viral genome is methylated by the host human cellular DNMTs. Because the integration of HPV16 in the human genome occurs in most cervical tumors and a significant proportion of premalignant lesions, we can consider that human DNMTs might recognize these sequences as “foreign” DNA that needs to be methylated. Indeed in our study, we have confirmed by FISH analyses that the HPV16 genome is integrated in the host cell DNA in CaSki and SiHa.
The described HPV16 DNA methylomes also reflect the proposed expression patterns of the virus in cervical tumorigenesis, characterized by a significant overexpression of E6 and E7 in the carcinomas. […] This event is particularly observed for the E1/E2 region. The protein E2 is an inhibitor of cell proliferation by regulating the viral URR, repressing the E6 and E7 oncoproteins and ultimately causing cell cycle arrest at G2 (Frattini 1997 EMBO J). Thus, the genomic loss of E2 could contribute to the progression of the disease. […]

The subject of assay [1] is E2-binding sites at the URR region. The assay is described as follows: Chromatin immunoprecipitation (ChIP) of E2 viral protein at the E2-binding sites of the URR. It is filed as cell-based. As to conditions: after induced hypomethylation of the E2-binding sites. An excerpt:
(§1) The described HPV16 DNA methylomes also reflect the proposed expression patterns of the virus in cervical tumorigenesis, characterized by a significant overexpression of E6 and E7 in the carcinomas. […] This event is particularly observed for the E1/E2 region. The protein E2 is an inhibitor of cell proliferation by regulating the viral URR, repressing the E6 and E7 oncoproteins and ultimately causing cell cycle arrest at G2 (Frattini 1997 EMBO J). Thus, the genomic loss of E2 could contribute to the progression of the disease. […] We observe instead methylation of the E2-binding sites at the URR region that are associated with high level of expression of the oncoproteins E6 and E7. Most important, we show by chromatin immunoprecipitation (ChIP) that the E2 viral protein cannot bind to the methylated E2-binding sites at the URR region, and thus leads to E6 and E7 overexpression.

The next assay deals with E6 and E7. Nature of the assay: Expression of HPV-16 E6 and E7 oncoproteins (Western blotting). It is filed as cell-based, HPV16. As to conditions: after induced hypomethylation of the E2-binding sites.
Description: The detection of the expression of viral oncogenic proteins was realized by Western blotting technique using commercially available antibodies, raised against E6 and E7.
as §1
A general note: A western blot detects proteins with antibodies after separation by electrophoresis.

Turning to `Nc1ncn([C@H]2C[C@H](O)[C@@H](CO)O2)c(=O)n1` [5-aza-2′-deoxycytidine], in the assay with HPV16 genome, the “methylation of the E2-binding sites at the URR region” value is “hypomethylation events”. Also, the “recruitment of E2 to its URR binding sites” value in assay [1] was “recruitment of E2 to its URR binding sites”. For the same compound, the “E6 and E7 expression” value in the assay with E6 and E7 was “marked reduction”.
